Assay results as given in patent publication US6878253B2, “Chiral separation of benzoporphyrin derivative mono-and di-acids by laser-induced fluorescence capillary electrophoresis” (The University of British Columbia, priority 1998, dated 2005).

How the values were obtained:
[1] = Extinction coefficient determination in borate/cholate buffer; format: physicochemical; details: 430 nm; 300 mM borate, 10% acetonitrile, 25 mM sodium cholate, pH 9.2
From the text: The compounds have the same chromophore and identical absorption spectra (FIG. 3a) with a characteristic major broad peak in the Soret region (420 nm) and several other peaks at longer wavelengths. The most interesting long wavelength peak, in terms of applications in PDT, is the peak at 688 nm (in organic solvents). […] An emission spectrum is also shown in FIG. 3b with a characteristic emission at about 692 nm, near red (Q-band), with a Stokes shift of ˜4 nm for fluorescence. […] As such, there is no gain in photo absorption by use of any particular BPD enantiomer.

skin = details: versus Photofrin (Richter et al. (1987)); cited from earlier work
[2] = Decomposition (hydrolysis) in electrophoresis buffers; format: physicochemical; details: in one hour at pH 9.2
Description: Separation by CE is also affected by the buffering system used. Buffer type, concentration, ionic strength, and pH are all parameters to consider, and a variety of buffers may be used. Buffer solutions of pH 11.04, 100 mM 3-(cyclohexylamino)-1-propanesulfonic acid (CAPS); pH 6.76, 30 mM ammonium acetate; pH 2.76, 50 mM citric acid; and pH 9.2, 100 mM borate were tested as electrolytes. […] This was followed by either separation shut down or excess spiking and signal noise. In citric acid buffer the BPD enantiomers were protonated at the propionic side chain, defeating separation based on the deprotonated state. Since the effective charge(s) are the same for BPD-DA and BPD-MA, the electrophoretic mobility difference is normally very small. Also, at […], the EOF was very small and this caused the migration time to become overly long. The result was very poor signal separation due to extensive diffusion.
With borate buffer at about pH 9.2, however, the BPD-DA and BPD-MA enantiomers were completely separated. This, in combination with the ability of borate to form a very stable buffer solution with high buffering capacity and its ability to be used in very high concentrations, made it a preferred choice for use in the instant separation methods. Borate has also been used in other separation systems (Consden et al. (1952); Boeseken (1949); and Landers et al. (1992)). […]

Row | Compound | Extinction coefficient [1] | skin phototoxicity (skin) | decomposition [2]
1 | C=Cc1c(C)c2cc3nc(cc4[nH]c(cc5nc(cc1[nH]2)C(C)=C5CCC(=O)O)c(CCC(=O)O)c4C)[C@@]1(C)C3=CC=C(C(=O)OC)[C@H]1C(=O)OC [BPD-DA, benzoporphyrin derivative diacid] | 75,200 M^−1 cm^−1 | – | –
2 | benzoporphyrin derivative monoacid ring A [BPD-MA] | 61,000 M^−1 cm^−1 | lower skin phototoxicity than Photofrin | less than 1%
